# Counter-ions that a name gives are not always drawn.
# Biological target: T1, HMG-CoA reductase (Rattus norvegicus, UniProt P51639)
# T1 sequence (P51639 1-887): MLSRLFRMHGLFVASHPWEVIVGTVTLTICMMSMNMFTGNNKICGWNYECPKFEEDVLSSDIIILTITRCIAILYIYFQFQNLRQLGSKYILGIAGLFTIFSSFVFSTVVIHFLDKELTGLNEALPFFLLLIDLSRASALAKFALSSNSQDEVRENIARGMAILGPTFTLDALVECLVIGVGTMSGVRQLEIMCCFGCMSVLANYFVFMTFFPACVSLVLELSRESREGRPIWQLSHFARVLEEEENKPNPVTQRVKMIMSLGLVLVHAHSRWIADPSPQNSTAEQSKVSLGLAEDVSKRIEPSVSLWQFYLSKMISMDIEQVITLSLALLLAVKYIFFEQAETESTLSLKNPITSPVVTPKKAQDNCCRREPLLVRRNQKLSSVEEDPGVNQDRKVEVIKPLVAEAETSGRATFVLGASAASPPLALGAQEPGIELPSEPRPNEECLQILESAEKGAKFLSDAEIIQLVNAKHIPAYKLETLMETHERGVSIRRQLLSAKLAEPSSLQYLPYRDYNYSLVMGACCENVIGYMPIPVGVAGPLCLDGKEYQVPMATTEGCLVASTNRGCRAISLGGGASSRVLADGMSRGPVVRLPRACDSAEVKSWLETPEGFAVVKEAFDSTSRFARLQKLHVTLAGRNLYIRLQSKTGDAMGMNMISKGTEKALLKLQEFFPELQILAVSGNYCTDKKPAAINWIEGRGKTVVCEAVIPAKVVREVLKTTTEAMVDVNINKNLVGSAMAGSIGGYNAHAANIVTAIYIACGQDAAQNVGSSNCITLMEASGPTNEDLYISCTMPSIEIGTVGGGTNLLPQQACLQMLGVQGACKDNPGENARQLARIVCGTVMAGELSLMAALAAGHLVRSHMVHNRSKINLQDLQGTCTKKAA
# Assay: biochemical
# Conditions: Table 3
# Description: The determination of the inhibitory activity of the compounds was made using the method of Kuroda et al ["Biochimica et Biophysica Acta" Vol. 486, pp. 70-81 (1977)] which is a modification of the known method of D. J. Shapiro et al ["Analytical Biochemistry" Vol. 31, pp. 383-390 (1969)] with some improvements.
row,IC50,SMILES
1,16.3 nM,CCC(C)C(=O)OC1CCC(=NOCc2ccccc2)C2=CC(=O)C(C)C(CCC(=O)CC(O)CC(=O)O)C21 (stereo not drawn)
2,22.8 nM,CCC(C)C(=O)OC1CCC(=NOCc2cnoc2)C2=CC(=O)C(C)C(CCC(O)CC(O)CC(=O)O)C21 (stereo not drawn) [Na salt of Compound of Preparation 9]
3,18.5 nM,CCC(C)C(=O)OC1CCC(=NOCc2ccccc2)C2=CC(=O)C(C)C(CCC(O)CC(O)CC(=O)O)C21 (stereo not drawn) [Na salt of Compound of Preparation 1]

# Further lines, the compound ahead of its results:
row,SMILES,IC50
1,CCC(C)C(=O)OC1CCC(=NOCc2c(C)noc2C)C2=CC(=O)C(C)C(CCC(O)CC(O)CC(=O)O)C21 (stereo not drawn) [Na salt of Compound of Preparation 11],17.3 nM
2,CCC(C)C(=O)OC1CCC(=NOCc2c(C)noc2C)C2=CC(=O)C(C)C(CCC(=O)CC(O)CC(=O)O)C21 (stereo not drawn),16.3 nM
3,CCC(C)C(=O)OC1CCC(=NOCc2cnoc2)C2=CC(=O)C(C)C(CCC(=O)CC(O)CC(=O)O)C21 (stereo not drawn),20.2 nM
